According to US20240190876A1, “Tricyclic Urea Compounds As JAK2 V617F Inhibitors” (Incyte Corporation, priority 2022, published 2024):

How the values were obtained:
FLT3 [1] = target: T1, FLT3 (Homo sapiens, UniProt P36888); assay: FLT3 Enzymatic Assay; format: biochemical; details: HTRF kinase assay, 1 mM ATP
T1 sequence (P36888 27-993): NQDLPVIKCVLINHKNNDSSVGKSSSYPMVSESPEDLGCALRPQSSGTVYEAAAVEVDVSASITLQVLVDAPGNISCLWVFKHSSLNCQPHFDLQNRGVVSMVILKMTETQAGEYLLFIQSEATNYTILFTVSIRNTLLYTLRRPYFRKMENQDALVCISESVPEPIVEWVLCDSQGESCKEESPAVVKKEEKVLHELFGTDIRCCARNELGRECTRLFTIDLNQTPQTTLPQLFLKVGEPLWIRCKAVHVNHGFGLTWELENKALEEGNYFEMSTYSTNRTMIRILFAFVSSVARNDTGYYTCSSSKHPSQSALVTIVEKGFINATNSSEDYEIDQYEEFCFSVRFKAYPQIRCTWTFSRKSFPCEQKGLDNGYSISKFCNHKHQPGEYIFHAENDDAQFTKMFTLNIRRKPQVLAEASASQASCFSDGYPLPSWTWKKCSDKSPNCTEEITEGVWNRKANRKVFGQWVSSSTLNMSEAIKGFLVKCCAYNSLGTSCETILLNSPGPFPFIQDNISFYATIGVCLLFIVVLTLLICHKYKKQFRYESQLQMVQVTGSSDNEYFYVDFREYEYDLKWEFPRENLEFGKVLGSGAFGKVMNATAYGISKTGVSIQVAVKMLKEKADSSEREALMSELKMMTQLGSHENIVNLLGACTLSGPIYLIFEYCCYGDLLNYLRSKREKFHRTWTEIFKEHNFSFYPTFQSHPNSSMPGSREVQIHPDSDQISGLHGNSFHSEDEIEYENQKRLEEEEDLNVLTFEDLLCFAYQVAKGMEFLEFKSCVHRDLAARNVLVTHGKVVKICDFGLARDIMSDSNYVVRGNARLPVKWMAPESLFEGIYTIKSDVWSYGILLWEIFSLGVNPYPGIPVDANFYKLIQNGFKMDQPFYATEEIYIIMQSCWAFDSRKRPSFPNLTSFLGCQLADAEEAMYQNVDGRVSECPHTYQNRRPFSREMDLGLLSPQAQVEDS
Description: (§1) The kinase assays were carried out at room temperature in assay buffer (HEPES 50 mM, pH 7.0, NaN3 0.02%, BSA 0.01%, Orthovanadate 0.1 mM, DTT 1 mM, MgCl2 10 mM) in a final volume of 10 μL. Testing compounds were prepared by serial dilution in DMSO and transferred to the plate wells by ECHO liquid handler (Labcyte) with 0.5% DMSO in the final assay. […]. Reactions were initiated by the addition of 5 μL ATP in assay buffer. The final 10 μL kinase reaction consists of 0.011 nM FLT3, 1 mM ATP, 500 nM TK Substrate-biotin and SEB reagent 62.5 nM in assay buffer. […] The plates were then sealed and centrifuged at 1800 rpm for 2 minutes. After 60 minutes incubation at room temperature, the product activity was determined by measuring the fluorescence at 620 nm and 665 nm on Pherastar microplate reader (BMG Labtech). A ratio is calculated (665/620 nm) for each well. Wells with DMSO only were served as the positive controls and wells containing no ATP were used as negative controls. IC50 determination was performed by fitting the curve of percent control activity versus the log of the compound concentration using the GraphPad Prism 7.0 software.

FLT3 [2] = assay: FLT3 Enzymatic Assay; format: biochemical; details: ratio FLT3 IC50 / JH2 V617F binding IC50
Description: as §1

KIT [3] = target: KIT (Homo sapiens, UniProt P10721); assay: KIT Enzymatic Assay; format: biochemical; details: HTRF kinase assay, 1 mM ATP
Description: as §1, with “0.12” for “0.011”, “KIT,” for “FLT3,”

KIT [4] = assay: KIT Enzymatic Assay; format: biochemical; details: ratio KIT IC50 / JH2 V617F binding IC50
Description: as §1, with “0.12” for “0.011”, “KIT,” for “FLT3,”

[5] = In Vitro Intrinsic Clearance; format: in vitro ADME; details: human liver microsomes, 1 μM compound, NADPH, scaled to human
Description: For in vitro metabolic stability experiments, test compounds were incubated with human liver microsomes at 37° C. The incubation mixture contained test compounds (1 μM), NADPH (2 mM), and human liver microsomes ([…]) in 100 mM phosphate buffer (pH 7.4). The mixture was pre-incubated for 2 min at 37° C. before the addition of NADPH. Reactions were commenced upon the addition of NADPH and quenched with ice-cold methanol at 0, 10, 20, and 30 min. Terminated incubation mixtures were analyzed using LC-MS/MS system. The analytical system consisted of a Shimadzu LC-30AD binary pump system and SIL-30AC autosampler (Shimadzu Scientific Instruments, Columbia, MD) coupled with a Sciex Triple Quad 6500+mass spectrometer from Applied Biosystems (Foster City, CA). […] Mobile phase A consisted of 0.1% formic acid in water, and mobile phase B consisted of 0.1% formic acid in acetonirile. The total LC-MS/MS runtime was 2.75 minutes with a flow rate of 0.75 mL/min. Peak area integrations and peak area ratio calculations were performed using Analyst software (version 1.6.3) from Applied Biosystems.
The in vitro intrinsic clearance, CLint, in vitro, was calculated from the t1/2 of test compound disappearance as CLint, in vitro=(0.693/t1/2)×(1/Cprotein), where Cprotein is the protein concentration during the incubation, and t1/2 was determined by the slope (k) of the log-linear regression analysis of the concentration versus time profiles; thus, t1/2ln2/k. The CLint, in vitro values were scaled to the in vivo values for human by using physiologically based scaling factors, hepatic microsomal protein concentrations (45 mg protein/g liver), and liver weights (21 g/kg body weight). The equation CLint=CLint, in vitro×(mg protein/g liver weight)×(g liver weight/kg body weight) was used. The in vivo hepatic clearance (CLH) was then calculated by using CLint and hepatic blood flow, Q (20 mL·min^−1kg^−1 in humans) in the well-stirred liver model disregarding all binding from CLH (Q×CLint)/(Q+CLint). The hepatic extraction ratio was calculated as CLH divided by Q.

KIT (Homo sapiens, UniProt P10721), sequence (P10721 26-976, species assumed): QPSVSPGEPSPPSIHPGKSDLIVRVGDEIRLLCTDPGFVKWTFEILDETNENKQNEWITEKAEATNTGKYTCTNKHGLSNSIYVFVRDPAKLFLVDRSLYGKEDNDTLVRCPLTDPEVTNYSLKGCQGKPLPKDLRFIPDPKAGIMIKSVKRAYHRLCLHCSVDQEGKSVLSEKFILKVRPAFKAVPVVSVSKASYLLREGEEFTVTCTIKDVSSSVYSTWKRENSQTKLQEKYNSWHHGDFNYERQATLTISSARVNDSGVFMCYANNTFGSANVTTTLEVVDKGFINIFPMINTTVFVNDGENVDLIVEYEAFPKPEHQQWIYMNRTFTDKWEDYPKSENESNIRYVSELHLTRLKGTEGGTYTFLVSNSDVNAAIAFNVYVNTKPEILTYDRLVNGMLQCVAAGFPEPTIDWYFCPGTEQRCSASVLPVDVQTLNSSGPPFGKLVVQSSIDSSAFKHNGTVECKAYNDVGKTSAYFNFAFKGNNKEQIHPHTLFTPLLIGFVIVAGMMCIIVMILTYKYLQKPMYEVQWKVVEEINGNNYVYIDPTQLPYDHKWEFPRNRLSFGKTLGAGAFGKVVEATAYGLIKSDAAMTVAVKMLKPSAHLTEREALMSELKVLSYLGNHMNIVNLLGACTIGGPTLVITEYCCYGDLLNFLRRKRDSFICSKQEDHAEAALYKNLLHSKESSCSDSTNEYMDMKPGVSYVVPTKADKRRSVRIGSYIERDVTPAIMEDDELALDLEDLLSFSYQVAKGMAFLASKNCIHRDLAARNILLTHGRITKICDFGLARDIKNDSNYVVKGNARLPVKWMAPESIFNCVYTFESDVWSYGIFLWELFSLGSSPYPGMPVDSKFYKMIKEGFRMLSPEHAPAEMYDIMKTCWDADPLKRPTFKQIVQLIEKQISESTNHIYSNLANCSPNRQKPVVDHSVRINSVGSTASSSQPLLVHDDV

Row | IC50 (FLT3 [1]) [nM] | IC50 (KIT [3]) [nM] | Structure (SMILES) | Selectivity FLT3/JH2 V617F (FLT3 [2]) | Selectivity KIT/JH2 V617F (KIT [4]) | h-IntCL [5]
1 | 250 to 1250 | 1250 to 2500 | [2H]C([2H])([2H])n1ncc2cc(-c3c(-c4cn(C)nc4OC)[nH]c4ncc5c(c34)n(C3CCOCC3)c(=O)n5C)ccc21 [Comparative Example B, reference compound] | * (* refers to selectivity of ≤500-fold) | ** (** refers to selectivity of >500-fold to ≤1500-fold) | ‡ ‡ (‡ ‡ refers to h-IntCL of ≥0.7 L/h/kg to ≤1 L/h/kg)
2 | ≤ 25 | 25 to 250 | Cn1cc(-c2[nH]c3ncc4c(c3c2-c2ccc3c(cnn3C)c2)n([C@H]2CC[C@@H](CC#N)CC2)c(=O)n4C)cn1 [Comparative Example C, reference compound] | * (* refers to selectivity of ≤500-fold) | * (* refers to selectivity of ≤500-fold) | ‡ ‡ ‡ (‡ ‡ ‡ refers to h-IntCL of >1 L/h/kg)
3 | – | – | COc1nn(C)cc1-c1[nH]c2ncc3c(c2c1-c1ccc2c(cnn2C)c1)n([C@H]1CC[C@@H](CC#N)CC1)c(=O)n3C [Comparative Example E, reference compound] | * (* refers to selectivity of ≤500-fold) | *** (*** refers to selectivity of >1500-fold to ≤1750-fold) | ‡ ‡ ‡ (‡ ‡ ‡ refers to h-IntCL of >1 L/h/kg)
4 | 250 to 1250 | – | COc1nn(C)cc1-c1[nH]c2ncc3c(c2c1-c1ccc2c(cnn2C)c1)n(C1CCOCC1)c(=O)n3C [Comparative Example A, reference compound] | * (* refers to selectivity of ≤500-fold) | * (* refers to selectivity of ≤500-fold) | ‡ ‡ ‡ (‡ ‡ ‡ refers to h-IntCL of >1 L/h/kg)
5 | – | – | COc1ccc(-c2c(-c3cnn(Cc4ccncc4)c3)[nH]c3ncc4c(c23)n(C2CCCC2)c(=O)n4C)cc1 [Comparative Example D, reference compound] | – | – | ‡ ‡ ‡ (‡ ‡ ‡ refers to h-IntCL of >1 L/h/kg)
